For one data set, the system named is wild type (WT) mice. The data set can be described thus: Toxicity in wild type mice, continuous subcutaneous dosing by Alzet pump. The class given is in vivo, mouse. The note with it: 6 mg/kg for 2 weeks.
The next data set relates to STHdhQ111/111 cells. As to the kind of experiment: Rescue of cells incubated in DMEM without serum and without Tun, PI cell cycle FACS. The settings on record: 48 hours in DMEM without serum and without Tun. The format is cell-based, murine. The procedure:
STHdhQ7/7 and STHdhQ111/111 cells were grown as described in Leitman et al. [PLoS One 2014, 9(3):e90803].
After the indicated treatment times in full medium or in DMEM without serum, cells were incubated with propidium iodide (PI) solution ([…]) and read by flow cytometry as described in Leitman et al. [PLoS One 2014, 9(3):e90803]. Cells in sub-G0/G1 were counted as apoptotic/dead cells.
The activity of the novel inhibitors, compared to A4, in preventing cytotoxicity induced by pathogenic Htt, was then tested. A stable murine striatal cell line expressing full-length polyQ-expanded Htt, STHdhQ^111/111, was used.

Data set [1] relates to R6/2 transgenic mice. The data set can be described thus: Survival of R6/2 mice. The class given is in vivo, mouse. How it is done:
Animals were treated as described in FIGS. 7-9. Transgenic mice receiving MK-28 (blue) or vehicle (red) were analyzed for mice survival (n=13/group). Gehan-Breslow-Wilcoxon Test for comparisons of Kaplan-Meier survival curves indicated a significant increase in the survival of MK-28 treated mice compared to untreated littermates (median survival 97 and 89 days, respectively, p=0.0469). Ratio 1.887, 95% CI of ratio 0.7726 to 4.611.
Alzet pumps were implanted at 4 weeks of age and MK-28 was administered at 1 mg/kg with continuous dosing for 28 days. This concentration is in a typical clinical dose range. The mice's motor function and coordination were tested by Rotarod, and limb clasping, ledge, gait and kyphosis were also tested. Vocalization tests were also performed and survival was assessed. Tests were performed in two independent blind experiments.

Data set [2] relates to R6/2 transgenic mice. As to the kind of experiment: Rotarod test in R6/2 HD model mice. The class given is in vivo, mouse. The note with it: 1 mg/kg continuous for 28 days. How it is done:
Motor activity was assessed by the rotarod test using the San Diego Instrument, Rotor-Rod (San Diego Instruments, CA, USA) (0-25 RPM). R6/2 mice and controls were tested every week after pump transplantation. Each test consisted of 3 consecutive measurements of 5 minutes on 4 rpm, 60 minutes of rest, 3 times 0-40 rpm. The latency to fall was recorded.
For the therapeutic assessment of MK-28 delivery, Alzet pumps model 1004, with a rate of 0.11 μl/hour and 28 days compound delivery were used. Five groups of mice were studied: (1) Transgenic (TG) treated with MK-28, (2) TG without treatment (pumps with vehicle), (3) Wild-type (WT) treated with MK-28, (4) WT without treatment (pumps with vehicle), (5) WT without pumps.
Alzet pumps were implanted at 4 weeks of age and MK-28 was administered at 1 mg/kg with continuous dosing for 28 days. This concentration is in a typical clinical dose range. […] Vocalization tests were also performed and survival was assessed. […]
Rotarod analysis was performed by assessing the maximum performance of each animal during three consecutive trials at different time points. The analysis evaluated the motor behavior of animals starting one week after the pump implantation (equivalent to the mice fifth week of life) and ending by seven weeks after first MK-28 delivery.
On the technique in general: Falling from the rotarod earlier than controls is read as motor impairment.

These results are taken from patent US10723706B2, “Perk inhibitors and uses thereof in treating diseases associated with aggregation-prone proteins” (Ramot at Tel-Aviv University Ltd., priority 2016, dated 2020).

“Also recorded” adds a separate entry of the source.

As for `CN(/N=C\c1ccc(O)c(O)c1)c1nc(-c2ccccc2)cc(-c2ccccc2)n1` [Compound 3, 2-{N-methyl-N′-(3,4-dihydroxybenzylidene)hydrazinyl}-4,6-diphenylpyrimidine], the “toxic effects in WT mice” value in the data set on wild type (WT) mice is recorded as “no toxic effects were observed”. Further, the “protective (rescue) effect without ER stressor” value in the data set on STHdhQ111/111 cells is “strong protective effect, in the low micromolar range”. The “protective (rescue) effect without ER stressor” value in the data set with STHdhQ111/111 cells (listed as MK-28) was “strong rescue effect”. Further, in the data set with R6/2 transgenic mice [1] (R6/2 TG mice), the “delay of death initiation versus vehicle” value is reported as about 10 days and the “increase in median survival versus untreated TG” value was determined as 8 days. Besides, in the data set on R6/2 transgenic mice [1] (R6/2 TG mice treated age weeks 4 to 8, n=13/group, p=0.0469), the median survival came to 97 days. Also, in the data set with R6/2 transgenic mice [1] (R6/2 TG mice, 95% CI of ratio 0.7726 to 4.611), the “Ratio, comparison of Kaplan-Meier survival curves” value is reported as 1.887. In addition, the “Rotarod motor performance of TG mice versus untreated TG” value in the data set with R6/2 transgenic mice [2] (R6/2 TG mice, p<0.05, listed as MK-28, 1 mg/kg) was “significant improvement in general motor performance; also recorded: significant improvement in motor function”. Besides, in the data set with R6/2 transgenic mice [2] (WT mice), the “Rotarod motor performance of WT mice” value is recorded as “no compromised motor performance”.
